Test results from article PMC9284540 (Journal of Molecular Biology, 2022).

Columns and labels:
[1] = target: T1, SARS-CoV-2^F360N/D361S MD (Severe acute respiratory syndrome coronavirus 2, UniProt P0DTD1, D1179S/F1178N); assay type: biochemical
[2] = target: T1, SARS-CoV-2^F360N/D361S MD; assay type: binding
[3] = target: T2, SARS-CoV-2^A358V/F360N MD (Severe acute respiratory syndrome coronavirus 2, UniProt P0DTD1, A1176V/F1178N); assay type: binding
[4] = target: T2, SARS-CoV-2^A358V/F360N MD; assay type: biochemical

N#C[C@@]1(c2ccc3c(N)ncnn23)O[C@H](CO)[C@@H](O)[C@H]1O [GS-441524]
Initial substrate decay rate k [1]: 0.160 ± 0.007 µM/min | decrease of the k value vs free form [1]: 24.9% | exchange regime on NMR time scale [2]: fast exchange regime | exchange regime on NMR time scale [3]: fast exchange regime | Initial substrate decay rate k [4]: 0.127 ± 0.01 µM/min | decrease of the k value vs free form [4]: 33.2%
